Data as given in PubChem BioAssay (NCI).
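A five-concentration, 48-hour dose response in 96-well plates underlies each endpoint, interpolated linearly between surrounding concentrations. TGI: concentration producing complete growth inhibition.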

Columns and labels:
Experiment in all cases: DTP human tumour cell line panel, 48 h
786-0 renal = tested on: 786-0 renal
A498 renal = tested on: A498 renal
A549 NSCLC = tested on: A549 NSCLC
ACHN renal = tested on: ACHN renal
BT-549 breast = tested on: BT-549 breast
CAKI-1 renal = tested on: CAKI-1 renal
CCRF-CEM leukemia = tested on: CCRF-CEM leukemia
COLO 205 colon = tested on: COLO 205 colon
DU-145 prostate = tested on: DU-145 prostate
EKVX NSCLC = tested on: EKVX NSCLC
HCC-2998 colon = tested on: HCC-2998 colon
HCT-116 colon = tested on: HCT-116 colon
HCT-15 colon = tested on: HCT-15 colon
HL-60(TB) leukemia = tested on: HL-60(TB) leukemia
HOP-62 NSCLC = tested on: HOP-62 NSCLC
HOP-92 NSCLC = tested on: HOP-92 NSCLC
HS 578T breast = tested on: HS 578T breast
HT29 colon = tested on: HT29 colon
IGROV1 ovarian = tested on: IGROV1 ovarian
K-562 leukemia = tested on: K-562 leukemia
KM12 colon = tested on: KM12 colon
LOX IMVI melanoma = tested on: LOX IMVI melanoma
M14 melanoma = tested on: M14 melanoma
MALME-3M melanoma = tested on: MALME-3M melanoma
MCF7 breast = tested on: MCF7 breast
MDA-MB-231 breast = tested on: MDA-MB-231 breast
MDA-MB-435 = tested on: MDA-MB-435
MDA-N = tested on: MDA-N
MOLT-4 leukemia = tested on: MOLT-4 leukemia
NCI-H226 lung = tested on: NCI-H226 lung
NCI-H23 lung = tested on: NCI-H23 lung
NCI-H460 lung = tested on: NCI-H460 lung
NCI-H522 lung = tested on: NCI-H522 lung
NCI/ADR-RES ovarian = tested on: NCI/ADR-RES ovarian
OVCAR-3 ovarian = tested on: OVCAR-3 ovarian
OVCAR-4 ovarian = tested on: OVCAR-4 ovarian
OVCAR-5 ovarian = tested on: OVCAR-5 ovarian
OVCAR-8 ovarian = tested on: OVCAR-8 ovarian
PC-3 prostate = tested on: PC-3 prostate
RPMI-8226 leukemia = tested on: RPMI-8226 leukemia
RXF 393 renal = tested on: RXF 393 renal
SF-268 CNS = tested on: SF-268 CNS
SF-295 CNS = tested on: SF-295 CNS
SF-539 CNS = tested on: SF-539 CNS
SK-MEL-2 melanoma = tested on: SK-MEL-2 melanoma
SK-MEL-28 melanoma = tested on: SK-MEL-28 melanoma
SK-MEL-5 melanoma = tested on: SK-MEL-5 melanoma
SK-OV-3 ovarian = tested on: SK-OV-3 ovarian
SN12C renal = tested on: SN12C renal
SNB-19 CNS = tested on: SNB-19 CNS
SNB-75 CNS = tested on: SNB-75 CNS
SR leukemia = tested on: SR leukemia
SW-620 colon = tested on: SW-620 colon
T-47D breast = tested on: T-47D breast
TK-10 renal = tested on: TK-10 renal
U251 CNS = tested on: U251 CNS
UACC-257 melanoma = tested on: UACC-257 melanoma
UACC-62 melanoma = tested on: UACC-62 melanoma
UO-31 renal = tested on: UO-31 renal

With `CCc1nc(N)nc(N)c1-c1ccc2c(c1)nnn2CCc1ccccc1` the TGI (786-0 renal) was 64.4 µM, the TGI (A498 renal) was > 79 µM and the TGI (A549 NSCLC) was > 100 µM. The TGI (ACHN renal) was > 70.1 µM, the TGI (BT-549 breast) was > 69 µM and the TGI (CAKI-1 renal) was > 100 µM. For the same compound, the TGI (CCRF-CEM leukemia) was > 69.9 µM, the TGI (COLO 205 colon) was 42 µM and the TGI (DU-145 prostate) was > 65.2 µM. For the same compound, the TGI (EKVX NSCLC) was > 75.8 µM, the TGI (HCC-2998 colon) was 51.4 µM and the TGI (HCT-116 colon) was > 61.1 µM. For the same compound, the TGI (HCT-15 colon) was > 63.2 µM, the TGI (HL-60(TB) leukemia) was 35.3 µM and the TGI (HOP-62 NSCLC) was > 69.9 µM. For the same compound, the TGI (HOP-92 NSCLC) was > 79.6 µM, the TGI (HS 578T breast) was > 85 µM and the TGI (HT29 colon) was 56.1 µM. For the same compound, the TGI (IGROV1 ovarian) was > 70.3 µM, the TGI (K-562 leukemia) was > 51.1 µM and the TGI (KM12 colon) was > 64.1 µM. The TGI (LOX IMVI melanoma) was > 65 µM, the TGI (M14 melanoma) was > 65.9 µM and the TGI (MALME-3M melanoma) was 49.5 µM. For the same compound, the TGI (MCF7 breast) was > 70 µM, the TGI (MDA-MB-231 breast) was > 72.4 µM and the TGI (MDA-MB-435) was > 68.7 µM. For the same compound, the TGI (MDA-N) was > 68.3 µM, the TGI (MOLT-4 leukemia) was 50.2 µM and the TGI (NCI-H226 lung) was > 71.8 µM. For the same compound, the TGI (NCI-H23 lung) was > 64.9 µM, the TGI (NCI-H460 lung) was 51.2 µM and the TGI (NCI-H522 lung) was 33.9 µM. For the same compound, the TGI (NCI/ADR-RES ovarian) was 68.8 µM, the TGI (OVCAR-3 ovarian) was > 70.1 µM and the TGI (OVCAR-4 ovarian) was > 100 µM. The TGI (OVCAR-5 ovarian) was > 82.5 µM, the TGI (OVCAR-8 ovarian) was > 64.9 µM and the TGI (PC-3 prostate) was > 64.7 µM. For the same compound, the TGI (RPMI-8226 leukemia) was 51.8 µM, the TGI (RXF 393 renal) was > 73.8 µM and the TGI (SF-268 CNS) was > 64.2 µM. The TGI (SF-295 CNS) was 57.1 µM, the TGI (SF-539 CNS) was > 68.9 µM and the TGI (SK-MEL-2 melanoma) was 61.9 µM. The TGI (SK-MEL-28 melanoma) was > 71.5 µM, the TGI (SK-MEL-5 melanoma) was 32.2 µM and the TGI (SK-OV-3 ovarian) was > 75.2 µM. The TGI (SN12C renal) was > 73.5 µM, the TGI (SNB-19 CNS) was 86.4 µM and the TGI (SNB-75 CNS) was 64.1 µM. The TGI (SR leukemia) was 49.5 µM, the TGI (SW-620 colon) was > 66.5 µM and the TGI (T-47D breast) was 64.5 µM. For the same compound, the TGI (TK-10 renal) was > 83.7 µM, the TGI (U251 CNS) was > 70.5 µM and the TGI (UACC-257 melanoma) was > 68.8 µM. For the same compound, the TGI (UACC-62 melanoma) was > 65.7 µM and the TGI (UO-31 renal) was > 60.6 µM.

In the case of `CC(=O)NCCC1CN(C(=O)/C=C\I)c2ccccc21` (stereo not drawn), the TGI (786-0 renal) is reported as 24.7 µM, the TGI (A498 renal) is reported as 41.7 µM and the TGI (A549 NSCLC) is reported as 31.4 µM. For the same compound, the TGI (ACHN renal) was 28.5 µM, the TGI (BT-549 breast) was 38.2 µM and the TGI (CAKI-1 renal) was 3.32 µM. For the same compound, the TGI (CCRF-CEM leukemia) was 13.3 µM, the TGI (COLO 205 colon) was 23.9 µM and the TGI (DU-145 prostate) was 33.1 µM. The TGI (EKVX NSCLC) was 34 µM, the TGI (HCC-2998 colon) was 28.5 µM and the TGI (HCT-116 colon) was 28.8 µM. It also gave a TGI (HCT-15 colon) of 22.1 µM, a TGI (HL-60(TB) leukemia) of 8.49 µM and a TGI (HOP-62 NSCLC) of 23.3 µM. It also gave a TGI (HOP-92 NSCLC) of 46.3 µM, a TGI (HS 578T breast) of 67.6 µM and a TGI (HT29 colon) of 24 µM. The TGI (IGROV1 ovarian) was 28.4 µM, the TGI (K-562 leukemia) was > 40.3 µM and the TGI (KM12 colon) was 18.7 µM. It also gave a TGI (LOX IMVI melanoma) of 11.1 µM, a TGI (M14 melanoma) of 24 µM and a TGI (MALME-3M melanoma) of 28.5 µM. It also gave a TGI (MCF7 breast) of 13.4 µM, a TGI (MDA-MB-231 breast) of 8.14 µM and a TGI (MDA-MB-435) of 30.8 µM. The TGI (MDA-N) was 26.3 µM, the TGI (MOLT-4 leukemia) was 13.7 µM and the TGI (NCI-H226 lung) was 27.6 µM. For the same compound, the TGI (NCI-H23 lung) was 35.2 µM, the TGI (NCI-H460 lung) was 22.3 µM and the TGI (NCI-H522 lung) was 3.29 µM. For the same compound, the TGI (NCI/ADR-RES ovarian) was > 61.7 µM, the TGI (OVCAR-3 ovarian) was 28.2 µM and the TGI (OVCAR-4 ovarian) was 39 µM. For the same compound, the TGI (OVCAR-5 ovarian) was 30.2 µM, the TGI (OVCAR-8 ovarian) was 35.8 µM and the TGI (PC-3 prostate) was 24 µM. For the same compound, the TGI (RPMI-8226 leukemia) was 9.5 µM, the TGI (RXF 393 renal) was 26.3 µM and the TGI (SF-268 CNS) was 31.6 µM. It also gave a TGI (SF-295 CNS) of 31.5 µM, a TGI (SF-539 CNS) of 17.8 µM and a TGI (SK-MEL-2 melanoma) of 29.7 µM. It also gave a TGI (SK-MEL-28 melanoma) of 31.6 µM, a TGI (SK-MEL-5 melanoma) of 16 µM and a TGI (SK-OV-3 ovarian) of 34.9 µM. It also gave a TGI (SN12C renal) of 13.1 µM, a TGI (SNB-19 CNS) of 46.9 µM and a TGI (SNB-75 CNS) of 33 µM. For the same compound, the TGI (SR leukemia) was > 65.9 µM, the TGI (SW-620 colon) was 38.6 µM and the TGI (T-47D breast) was 37.6 µM. For the same compound, the TGI (TK-10 renal) was 19.5 µM, the TGI (U251 CNS) was 25.9 µM and the TGI (UACC-257 melanoma) was 26.7 µM. It also gave a TGI (UACC-62 melanoma) of 28.3 µM and a TGI (UO-31 renal) of 18.8 µM.
